Measured values reported in ChEMBL document CHEMBL1208726, “Synthesis and anti-inflammatory activity of some 3-(4,6-disubtituted-2-thioxo-1,2,3,4-tetrahydropyrimidin-5-yl) propanoic acid derivatives” (2010).

Experiments:
Format in all cases: functional
Rattus norvegicus [1] = test: Antiinflammatory activity in Albino rat assessed as reduction of carrageenan-induced paw volume at 20 mg/kg, po administered 1 hr before carrageenan challenge measured after 1 hr (reference value: 1.925 +/- 0.1011 ml)
Rattus norvegicus [2] = test: Antiinflammatory activity in Albino rat assessed as reduction of carrageenan-induced paw volume at 20 mg/kg, po administered 1 hr before carrageenan challenge measured after 2 hrs (reference value: 1.905 +/- 0.046 ml)
Rattus norvegicus [3] = test: Antiinflammatory activity in Albino rat assessed as reduction of carrageenan-induced paw volume at 20 mg/kg, po administered 1 hr before carrageenan challenge measured after 3 hrs (reference value: 1.63 +/- 0.059 ml)
Rattus norvegicus [4] = test: Antiinflammatory activity in Albino rat assessed as reduction of carrageenan-induced paw volume at 20 mg/kg, po administered 1 hr before carrageenan challenge measured after 4 hrs (reference value: 1.44 +/- 0.046 ml)
Rattus norvegicus [5] = test: Antiinflammatory activity in Albino rat assessed as reduction of carrageenan-induced paw volume at 20 mg/kg, po administered 1 hr before carrageenan challenge measured after 24 hrs (reference value: 1.39 +/- 0.053 ml)
Rattus norvegicus [6] = test: Antiinflammatory activity in Albino rat assessed as inhibition of carrageenan-induced paw volume at 20 mg/kg, po administered 1 hr before carrageenan challenge measured after 1 hr
Rattus norvegicus [7] = test: Antiinflammatory activity in Albino rat assessed as inhibition of carrageenan-induced paw volume at 20 mg/kg, po administered 1 hr before carrageenan challenge measured after 2 hrs
Rattus norvegicus [8] = test: Antiinflammatory activity in Albino rat assessed as inhibition of carrageenan-induced paw volume at 20 mg/kg, po administered 1 hr before carrageenan challenge measured after 3 hrs
Rattus norvegicus [9] = test: Antiinflammatory activity in Albino rat assessed as inhibition of carrageenan-induced paw volume at 20 mg/kg, po administered 1 hr before carrageenan challenge measured after 4 hrs
Rattus norvegicus [10] = test: Antiinflammatory activity in Albino rat assessed as inhibition of carrageenan-induced paw volume at 20 mg/kg, po administered 1 hr before carrageenan challenge measured after 24 hrs

Which Activity (Rattus norvegicus [1]) does the source give for `O=C(O)CCC1=C(c2ccc(Cl)cc2)NC(=S)NC1c1ccco1` (stereo not given) here?
The Activity was 1.34 mL.

And the Activity (Rattus norvegicus [2])?
The Activity was 1.56 mL.

And the Activity (Rattus norvegicus [3])?
The Activity was 1.54 mL.

And the Activity (Rattus norvegicus [4])?
Its Activity is 1.47 mL.

And the Activity (Rattus norvegicus [5])?
The Activity was 1.39 mL.

What about the inhibition in vivo at 20 mg/kg (Rattus norvegicus [6]) of the same compound?
Its inhibition in vivo at 20 mg/kg is 30.4%.

And the inhibition in vivo at 20 mg/kg (Rattus norvegicus [7])?
The inhibition in vivo at 20 mg/kg was 17.9%.

What about the inhibition in vivo at 20 mg/kg (Rattus norvegicus [8]) of the same compound?
The inhibition in vivo at 20 mg/kg was 5.52%.

`O=C(O)CCC1=C(c2ccc(Cl)cc2)NC(=S)NC1c1ccccc1O` (stereo not given) was tested. Which Activity (Rattus norvegicus [1]) did it give?
The Activity was 1.74 mL.

What about the Activity (Rattus norvegicus [2]) of the same compound?
The Activity was 1.62 mL.

What about the Activity (Rattus norvegicus [3]) of the same compound?
Its Activity is 1.61 mL.

What about the Activity (Rattus norvegicus [4]) of the same compound?
The Activity was 1.58 mL.

And the Activity (Rattus norvegicus [5])?
The Activity was 1.46 mL.

And the inhibition in vivo at 20 mg/kg (Rattus norvegicus [6])?
Its inhibition in vivo at 20 mg/kg is 9.61%.

And the inhibition in vivo at 20 mg/kg (Rattus norvegicus [7])?
The inhibition in vivo at 20 mg/kg was 14.7%.

What about the inhibition in vivo at 20 mg/kg (Rattus norvegicus [8]) of the same compound?
The inhibition in vivo at 20 mg/kg was 1.22%.

`COc1ccc(C2=C(CCC(=O)O)C(c3ccccc3O)NC(=S)N2)cc1` (stereo not given) was tested. Which Activity (Rattus norvegicus [1]) did it give?
Its Activity is 1.38 mL.

And the Activity (Rattus norvegicus [2])?
The Activity was 1.39 mL.

And the Activity (Rattus norvegicus [3])?
Its Activity is 1.29 mL.

And the Activity (Rattus norvegicus [4])?
The Activity was 1.33 mL.

And the Activity (Rattus norvegicus [5])?
Its Activity is 1.2 mL.

And the inhibition in vivo at 20 mg/kg (Rattus norvegicus [6])?
The inhibition in vivo at 20 mg/kg was 28.3%.

And the inhibition in vivo at 20 mg/kg (Rattus norvegicus [7])?
Its inhibition in vivo at 20 mg/kg is 27%.

What about the inhibition in vivo at 20 mg/kg (Rattus norvegicus [8]) of the same compound?
Its inhibition in vivo at 20 mg/kg is 20.9%.

What about the inhibition in vivo at 20 mg/kg (Rattus norvegicus [9]) of the same compound?
The inhibition in vivo at 20 mg/kg was 7.63%.

And the inhibition in vivo at 20 mg/kg (Rattus norvegicus [10])?
Its inhibition in vivo at 20 mg/kg is 13.7%.

What does the source list for `COc1cc(C2NC(=S)NC(c3ccc(C)cc3)=C2CCC(=O)O)ccc1O` (stereo not given)?
Activity (Rattus norvegicus [1]): 1.96 mL; Activity (Rattus norvegicus [2]): 1.87 mL; Activity (Rattus norvegicus [3]): 1.79 mL; Activity (Rattus norvegicus [4]): 1.69 mL; Activity (Rattus norvegicus [5]): 1.55 mL; inhibition in vivo at 20 mg/kg (Rattus norvegicus [7]): 1.57%

For `O=C(O)CCC1=C(c2ccccc2)NC(=S)NC1c1ccccc1O` (stereo not given), which Activity (Rattus norvegicus [1]) is on record?
Its Activity is 1.29 mL.

What about the Activity (Rattus norvegicus [2]) of the same compound?
Its Activity is 1.36 mL.

What about the Activity (Rattus norvegicus [3]) of the same compound?
The Activity was 1.42 mL.

And the Activity (Rattus norvegicus [4])?
The Activity was 1.49 mL.

And the Activity (Rattus norvegicus [5])?
Its Activity is 1.36 mL.

And the inhibition in vivo at 20 mg/kg (Rattus norvegicus [6])?
Its inhibition in vivo at 20 mg/kg is 33%.

What about the inhibition in vivo at 20 mg/kg (Rattus norvegicus [7]) of the same compound?
The inhibition in vivo at 20 mg/kg was 28.6%.

What about the inhibition in vivo at 20 mg/kg (Rattus norvegicus [8]) of the same compound?
The inhibition in vivo at 20 mg/kg was 12.9%.

What about the inhibition in vivo at 20 mg/kg (Rattus norvegicus [10]) of the same compound?
Its inhibition in vivo at 20 mg/kg is 2.15%.

How did the Activity (Rattus norvegicus [1]) turn out when `COc1cc(C2NC(=S)NC(c3ccc(C)cc3)=C2CCC(=O)O)cc(OC)c1OC` (stereo not given) was run?
The Activity was 1.53 mL.

And the Activity (Rattus norvegicus [2])?
The Activity was 1.63 mL.

And the Activity (Rattus norvegicus [3])?
Its Activity is 1.37 mL.

What about the Activity (Rattus norvegicus [4]) of the same compound?
Its Activity is 1.44 mL.

What about the Activity (Rattus norvegicus [5]) of the same compound?
The Activity was 1.54 mL.

And the inhibition in vivo at 20 mg/kg (Rattus norvegicus [6])?
The inhibition in vivo at 20 mg/kg was 20.5%.

And the inhibition in vivo at 20 mg/kg (Rattus norvegicus [7])?
The inhibition in vivo at 20 mg/kg was 14.2%.

What about the inhibition in vivo at 20 mg/kg (Rattus norvegicus [8]) of the same compound?
Its inhibition in vivo at 20 mg/kg is 15.9%.

How did the Activity (Rattus norvegicus [1]) turn out when `O=C(O)CCC1=C(c2ccc(Cl)cc2)NC(=S)NC1c1ccccn1` (stereo not given) was run?
Its Activity is 1.5 mL.

What about the Activity (Rattus norvegicus [2]) of the same compound?
The Activity was 1.49 mL.

What about the Activity (Rattus norvegicus [3]) of the same compound?
The Activity was 1.54 mL.

And the Activity (Rattus norvegicus [4])?
The Activity was 1.6 mL.

What about the Activity (Rattus norvegicus [5]) of the same compound?
The Activity was 1.3 mL.

What about the inhibition in vivo at 20 mg/kg (Rattus norvegicus [6]) of the same compound?
Its inhibition in vivo at 20 mg/kg is 22.1%.

And the inhibition in vivo at 20 mg/kg (Rattus norvegicus [7])?
The inhibition in vivo at 20 mg/kg was 21.8%.

And the inhibition in vivo at 20 mg/kg (Rattus norvegicus [8])?
The inhibition in vivo at 20 mg/kg was 5.52%.

And the inhibition in vivo at 20 mg/kg (Rattus norvegicus [10])?
The inhibition in vivo at 20 mg/kg was 6.47%.

Which results are given for `Cc1ccc(C2=C(CCC(=O)O)C(c3ccco3)NC(=S)N2)cc1` (stereo not given)?
Activity (Rattus norvegicus [1]): 1.29 mL; Activity (Rattus norvegicus [2]): 1.37 mL; Activity (Rattus norvegicus [3]): 1.46 mL; Activity (Rattus norvegicus [4]): 1.38 mL; Activity (Rattus norvegicus [5]): 1.19 mL; inhibition in vivo at 20 mg/kg (Rattus norvegicus [6]): 33%; inhibition in vivo at 20 mg/kg (Rattus norvegicus [7]): 28.1%; inhibition in vivo at 20 mg/kg (Rattus norvegicus [8]): 10.4%; inhibition in vivo at 20 mg/kg (Rattus norvegicus [9]): 4.16%; inhibition in vivo at 20 mg/kg (Rattus norvegicus [10]): 14.4%

Which results are given for `O=C(O)CCC1=C(c2ccccc2)NC(=S)NC1c1ccco1` (stereo not given)?
Activity (Rattus norvegicus [1]): 1.37 mL; Activity (Rattus norvegicus [2]): 1.49 mL; Activity (Rattus norvegicus [3]): 1.47 mL; Activity (Rattus norvegicus [4]): 1.36 mL; Activity (Rattus norvegicus [5]): 1.16 mL; inhibition in vivo at 20 mg/kg (Rattus norvegicus [6]): 28.8%; inhibition in vivo at 20 mg/kg (Rattus norvegicus [7]): 21.8%; inhibition in vivo at 20 mg/kg (Rattus norvegicus [8]): 9.81%; inhibition in vivo at 20 mg/kg (Rattus norvegicus [9]): 5.55%; inhibition in vivo at 20 mg/kg (Rattus norvegicus [10]): 16.5%

For `O=C(O)CCC1=C(c2ccc(F)cc2)NC(=S)NC1c1ccco1` (stereo not given), which Activity (Rattus norvegicus [1]) is on record?
The Activity was 1.45 mL.

And the Activity (Rattus norvegicus [2])?
Its Activity is 1.63 mL.

And the Activity (Rattus norvegicus [3])?
The Activity was 1.57 mL.

What about the Activity (Rattus norvegicus [4]) of the same compound?
Its Activity is 1.56 mL.

What about the Activity (Rattus norvegicus [5]) of the same compound?
Its Activity is 1.48 mL.

And the inhibition in vivo at 20 mg/kg (Rattus norvegicus [6])?
The inhibition in vivo at 20 mg/kg was 24.7%.

What about the inhibition in vivo at 20 mg/kg (Rattus norvegicus [7]) of the same compound?
The inhibition in vivo at 20 mg/kg was 14.2%.

What about the inhibition in vivo at 20 mg/kg (Rattus norvegicus [8]) of the same compound?
The inhibition in vivo at 20 mg/kg was 3.68%.

For `O=C(O)Cc1ccccc1Nc1c(Cl)cccc1Cl` [DICLOFENAC], which Activity (Rattus norvegicus [1]) is on record?
Its Activity is 1.51 mL.

What about the Activity (Rattus norvegicus [2]) of the same compound?
The Activity was 1.56 mL.

And the Activity (Rattus norvegicus [3])?
The Activity was 1.29 mL.

What about the Activity (Rattus norvegicus [4]) of the same compound?
The Activity was 1.34 mL.

And the Activity (Rattus norvegicus [5])?
Its Activity is 1.51 mL.

What about the inhibition in vivo at 20 mg/kg (Rattus norvegicus [6]) of the same compound?
The inhibition in vivo at 20 mg/kg was 21.6%.

What about the inhibition in vivo at 20 mg/kg (Rattus norvegicus [7]) of the same compound?
Its inhibition in vivo at 20 mg/kg is 17.9%.

What about the inhibition in vivo at 20 mg/kg (Rattus norvegicus [8]) of the same compound?
The inhibition in vivo at 20 mg/kg was 20.9%.

What about the inhibition in vivo at 20 mg/kg (Rattus norvegicus [9]) of the same compound?
Its inhibition in vivo at 20 mg/kg is 6.94%.
